Experimental data published in patent publication US7435742B2, “Quinuclidine derivatives and pharmaceutical compositions containing the same” (Laboratorios Almirall S.A., priority 2002, dated 2008).

melting point | SMILES
73.1 to 74.5 °C | O=C(O[C@H]1C[N+]2(CCOc3ccccc3)CCC1CC2)N(CC1CCCCC1)c1ccccc1F.[Br-]
73.3 to 74.1 °C | O=C(O[C@H]1C[N+]2(CCCc3ccccc3)CCC1CC2)N(CC1CCCCC1)c1ccccc1F.[Br-]
143 °C | O=C(O[C@H]1C[N+]2(CCCc3cccs3)CCC1CC2)N(Cc1cccs1)Cc1cccs1.[Br-]
95 °C | O=C(O[C@H]1C[N+]2(CCCc3cccs3)CCC1CC2)N(Cc1ccccc1)c1ccccc1.[Br-]
203 °C | C[N+]12CCC(CC1)[C@@H](OC(=O)N(CCc1ccccc1)c1ccccc1)C2.[Br-]
127 °C | CCCCN(C(=O)O[C@H]1C[N+]2(CCCc3cccs3)CCC1CC2)c1ccccc1.[Br-]
110 °C | C=CC[N+]12CCC(CC1)[C@@H](OC(=O)N(Cc1cccs1)c1ccccc1)C2.[Br-]
117 °C | O=C(O[C@H]1C[N+]2(CCOc3ccccc3)CCC1CC2)N(Cc1ccccc1)c1ccccc1.[Br-]
173.9 to 175.5 °C | O=C(O[C@H]1C[N+]2(CCOc3ccccc3)CCC1CC2)N(Cc1cc(F)c(F)c(F)c1)c1cccc(F)c1.[Br-]
133 °C | O=C(O[C@H]1C[N+]2(CCOc3ccccc3)CCC1CC2)N(Cc1cccs1)c1ccccc1.[Br-]
137.3 to 139.1 °C | Cc1cccc(N(Cc2cc(F)c(F)cc2F)C(=O)O[C@H]2C[N+]3(CCOc4ccccc4)CCC2CC3)c1.[Br-]
126 °C | CCCCN(C(=O)O[C@H]1C[N+]2(CCCOc3ccc(F)cc3)CCC1CC2)c1ccccc1.[Cl-]
